Legend:
[1] = test system: C86S-mutated MLKL; details: cited from earlier work
[2] = test system: U937 cells; experiment: U937 necroptosis assay; assay type: cell-based; details: Homo sapiens, U-937, huTNFα plus 10 µM zVAD-fmk, read-out: U937 NEC IC50
Procedure: (§1) For the Jurkat FADD^−/− Necroptosis assay, compounds were serially diluted in 100% dimethyl sulfoxide (DMSO) (Sigma-Aldrich catalog no. 41641), and 250 nL was transferred to a sterile 384-well microtiter plate (PerkinElmer catalog no. 6007688) via Echo liquid handler (LABCYTE). Five thousand Jurkat FADD ^−/− cells (ATCC catalog no. CRL-2572) in 20 µL of modified Roswell Park Memorial Institute medium (Gibco catalog no. 10491), 10% fetal calf serum (Gibco catalog no. 100500), 1x Anti/Anti (Gibco catalog no. 15240-062), 1x L-Glutamax (Gibco catalog no. 35050-087), and 1% PenStrep (SIGMA catalog no. P4333) were seeded into each well of the prepared assay plate with compound. Cells and compounds were incubated for 30 min at 37 °C (humidified incubator with 5% CO2). After incubation, 5 µL of recombinant human TNFα (huTNFα) (Biotrend catalog no. cyt-223; 10 ng/mL final concentration [f.c.]) was added to the cells, followed by an incubation of 24 h at 37 °C. Following the incubation, the experimental plates were equilibrated to room temperature (30 min) before 25 µL of Cell Titer Glo Luminescent Cell Viability Assay System reagent (Promega catalog no. G7571) was added to the plate wells, incubated at room temperature for ∼10 min. After incubation, the samples were analyzed for luminescence by using an Envision reader (PerkinElmer).
(§2) Each assay plate contained wells with “high” and “low” controls. High controls (100% CTL) were defined as cells treated with DMSO, and low controls (0% CTL) were defined as cells treated with 10 ng/mL recombinant huTNFα. IC50 values were calculated based on the percentage of control values using a four-parameter-fitting model.
(§3) MLKL antagonists were also evaluated in a necroptosis assay with U937 cells ([26]) (ATCC catalog no. CRL-1593.2). The assay procedure with U937 cells was as described for the Jurakt FADD^−/− necroptosis assay with the following modifications: 8,000 cells were seeded per well, and, in addition to the recombinant huTNFα, cells were also incubated in the presence of 10 µM (f.c.) carbobenzoxy-valyl-alanyl-aspartyl-[O-methyl]-fluoromethylketone (zVAD-fmk) (Enzo Life Sciences catalog no. ALX-260-020). Low controls (0% CTL) were defined as cells treated with 100 ng/mL recombinant huTNFα plus 10 µM zVAD-fmk.
(§4) All cellular assays were done for Cpd 1, Cpd 2, Cpd 3, Cpd 4, and Cpd 5 in duplicate and in quadruplet for NSA.

[3] = test system: U937 cells; experiment: U937 cytotox assay; assay type: cell-based; details: Homo sapiens, U-937, without huTNFα and zVAD-fmk, read-out: U937 TOX IC50
Procedure: as §3
(§5) MLKL antagonists were tested in cytotox assays by using Jurkat FADD^−/− and U937 cells according to the assay procedures described for the necroptosis assays, but without treatment with recombinant huTNFα and/or zVAD-fmk. High controls (100% CTL, no effect) were defined as cells treated with DMSO, and low controls (0% CTL) were defined as medium without cells (0% CTL, maximal effect).
as §4

[4] = test system: Jurkat FADD−/− cells; experiment: Jurkat FADD−/− cytotox assay; assay type: cell-based; details: Homo sapiens, without huTNFα, Cell Titer Glo viability, read-out: Jurkat TOX IC50
Procedure: as §1, §5, §4

[5] = test system: Jurkat FADD−/− cells; experiment: Jurkat FADD−/− necroptosis assay; assay type: cell-based; details: Homo sapiens, 10 ng/mL huTNFα, 24 h, Cell Titer Glo viability, read-out: Jurkat NEC IC50
Procedure: as §1, §2, §4

[6] = molecular target: T1, human MLKL executioner domain (WT) (Homo sapiens, UniProt Q8NB16); experiment: Functional NMR assay (detachment of α-helix 6), WT; assay type: biochemical; details: for Inhibitory effect on MLKL activation (α-helix 6 detachment), in words: 12 mM NM + 500 µM IP6 + 500 µM xanthine compound, compared with Cpd 3 (Fig. 3C); for Population of the activated state (pact), α-helix 6 detached: 12 mM NM alone or 500 µM IP6 alone
T1 construct: 80 µM MLKL N-terminal executioner domain (residues 1 to 154) was used; GST (thrombin cleavage site) (cleaved yes)
T1 sequence (Q8NB16 1-154): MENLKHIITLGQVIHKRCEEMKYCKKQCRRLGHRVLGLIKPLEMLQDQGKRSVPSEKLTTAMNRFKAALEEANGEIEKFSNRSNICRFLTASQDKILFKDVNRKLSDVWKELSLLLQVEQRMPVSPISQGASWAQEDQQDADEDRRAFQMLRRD
Excerpt: To test the significance of the additional interaction between α-helix 6 and the four-helix bundle provided by the xanthine compounds stacking to the phenyl ring of Phe148, we used a described functional NMR assay ([12]). Binding of phytic acid (IP6) and the detergent β-D-nonylmaltoside (NM) led to the detachment of α-helix 6, which can be monitored in ^1H,^15N-correlation spectra by the altered chemical shift of the Hε1–Nε1 correlation of Trp133 and the backbone N–H correlation of Ala141 ([12]). […] Adding 12 mM NM or 500 µM IP6 led to the appearance of a second very weak peak reporting on the detached α-helix 6 with a population of the activated state (pact) of 1% and 4%, respectively (Fig. 3). […] Combining 12 mM NM and 500 µM IP6 induced a dramatic increase of the population of the detached state (pact 86%). […] To further validate the importance of the π–π stacking interaction between the xanthine and Phe148 in α-helix 6, we carried out the functional NMR assay with the F148A-mutated variant of MLKL. The removal of the phenyl group induced significant CSPs localized in close proximity to the mutation site, due to the removal of ring currents and, therefore, strong electronic changes. […] MLKL F148A was more sensitive to the addition of 12 mM NM, 500 µM IP6, or the combination thereof. In the spectra in the presence of NM and the combination of NM and IP6, a third Trp133 peak appeared, most likely reporting on a state similar to the active state. […] Thus, the stacking interaction of the xanthine core to Phe148 is vital for the inhibitory activity of these MLKL inhibitors.
Fig. 3. (A and B) The region of the NMR ^1H,^15N-correlation spectra of the MLKL executioner domain (protein concentration: 80 µM) containing the cross-peaks of Trp133 Nε1–Hε1 in the auto-inhibited state where α-helix 6 is attached to the four-helix bundle (inact. state) and in the active, detached state (act. state) are shown. The unliganded state is depicted in black, with 12 mM NM in cyan; 500 µM IP6 in orange; 500 µM Cpd 3 in blue; 12 mM NM and 500 µM IP6 in red; and 12 mM NM, 500 µM IP6, and 500 µM Cpd 3 in green. The spectra depicted in A are measured with the WT protein and in B with the F148A variant. […] Dark gray bars correspond to the WT, while light gray bars correspond to the F148A variant. The asterisk means that no active conformation could be detected. Double asterisks indicate data not determined.
For the functional NMR assay ^1H,^15N-correlation spectra were recorded on a Bruker Avance III HD 600-MHz NMR spectrometer equipped with a cryogenic QCI probe in 2.5-mm NMR tubes at 298 K. Spectra were recorded with 64 complex points in the indirect dimension, 96 scans, and an interscan delay of 2 s. For the samples, 80 µM MLKL N-terminal executioner domain (residues 1 to 154) was used in a 20 mM sodium phosphate buffer at pH 7.5 containing 150 mM sodium chloride and 1 mM TCEP. For the different conditions, either 500 µM IP6, 12 mM NM, or a combination of the two were used. The xanthine compounds were tested at 500 µM, while NSA, due to limited solubility, was tested only at 200 µM, which is sufficient to saturate MLKL. Spectra were analyzed, and peaks were integrated in CcpNnmr analysis ([39]).

[7] = test system: U937 cells; experiment: U937 apoptosis assay; assay type: cell-based; details: Homo sapiens, U-937, 100 ng/mL huTNFα plus 3 µM NSA, read-out: U937 APOP IC50
Procedure: as §3
Furthermore, MLKL antagonists were tested in a U937 apoptosis assay in the presence of 3 µM (f.c.) NSA (Tocris catalog no. 5025) and 100 ng/mL (f.c.) recombinant huTNFα in the same way as described for the U937 necroptosis assay. Low controls (0% CTL) were defined as cells treated with 100 ng/mL recombinant huTNFα plus 3 µM NSA.
as §4

Row | SMILES | Inhibitory effect on MLKL activation (α-helix 6 detachment), in words ([6]; WT) | IC50 [7] [µM] | Population of the activated state (pact), α-helix 6 detached ([6]; WT) [%] | Activity in MLKL knockout cells transfected with C86S-mutated MLKL [1] | IC50 [2] [µM] | IC50 [3] [µM] | IC50 [4] [µM] | IC50 [5] [µM] | Effect on α-helix 6 detachment, in words ([6]; WT MLKL:NSA complex (200 µM NSA), addition of 12 mM NM and 500 µM IP6) | Induction of the active state by compound alone ([6]; WT, compound alone (Cpd 3 500 µM, NSA 200 µM), no NM/IP6)
1 | Cn1c(=O)c2c(nc(S(C)(=O)=O)n2C)n(C)c1=O [Cpd 1] | even less activated | > 100 | – | hampered | 0.312 | > 100 | 56.3 | 0.574 | – | –
2 | COCCOCn1c(S(C)(=O)=O)nc2c1c(=O)n(C)c(=O)n2C [Cpd 2] | even less activated | > 100 | – | hampered | 0.042 | 4.38 | 3.83 | 0.069 | – | –
3 | Cn1c(=O)c2c(nc([S+](C)[O-])n2C)n(C)c1=O (centres unmarked) [Cpd 4] | significantly reduced | > 100 | – | – | 3.17 | > 100 | > 100 | 5.24 | – | –
4 | CSc1nc2c(c(=O)n(C)c(=O)n2C)n1C [Cpd 5] | abolished | > 100 | – | – | > 100 | > 100 | > 100 | > 100 | – | –

Second part, led by results:

Row | Inhibitory effect on MLKL activation (α-helix 6 detachment), in words ([6]; WT) | IC50 [7] [µM] | Population of the activated state (pact), α-helix 6 detached ([6]; WT) [%] | SMILES | Activity in MLKL knockout cells transfected with C86S-mutated MLKL [1] | IC50 [2] [µM] | IC50 [3] [µM] | IC50 [4] [µM] | IC50 [5] [µM] | Effect on α-helix 6 detachment, in words ([6]; WT MLKL:NSA complex (200 µM NSA), addition of 12 mM NM and 500 µM IP6) | Induction of the active state by compound alone ([6]; WT, compound alone (Cpd 3 500 µM, NSA 200 µM), no NM/IP6)
5 | – | – | 4 | O=P(O)(O)O[C@H]1[C@H](OP(=O)(O)O)[C@@H](OP(=O)(O)O)[C@H](OP(=O)(O)O)[C@@H](OP(=O)(O)O)[C@H]1OP(=O)(O)O [IP6, phytic acid] | – | – | – | – | – | – | –
6 | – | – | 1 | CCCCCCCCCO[C@@H]1O[C@H](CO)[C@@H](O[C@H]2O[C@H](CO)[C@@H](O)[C@H](O)[C@H]2O)[C@H](O)[C@H]1O [NM, β-D-nonylmaltoside] | – | – | – | – | – | – | –
7 | – | > 100 | – | COc1nccnc1NS(=O)(=O)c1ccc(NC(=O)/C=C/c2ccc([N+](=O)[O-])s2)cc1 [NSA, Necrosulfonamide] | – | 0.454 | 14.7 | 6.2 | 1.4 | complete population shift to the active α-helix detached state | α-helix 6 remains in the attached auto-inhibitory state

Reference: paper PMC7777204, “Locking mixed-lineage kinase domain-like protein in its auto-inhibited state prevents necroptosis” (Proceedings of the National Academy of Sciences of the …, 2020)
